# Values quoted from earlier work as cited in PubChem BioAssay AID1259410 (Chemical Carcinogenesis Research Information System (CCRIS), 2018).
# System: rodent tumor promotion studies, tumor incidence
# Assay: CCRIS tumor promotion studies
structure (smiles),measurement,setting,value
CCCCCC1(CCCCCC(=O)OC2C(C)C3(O)C(C=C(CO)CC4(O)C(=O)C(C)=CC43)C3C(C)(C)C23OC(C)=O)OCC(C)(C)N1[O] (stereo unspecified),outcome,"Carcinogen: 7,12-DIMETHYLBENZ[A]ANTHRACENE, 57-97-6, Doses [Carcinogen]: 100 NMOL ONCE, Doses [Promoter]: 0, 20 NMOL 2/WK FOR 24 WK BEGINNING 1 WK POST CARCINOGEN DOSE (STUDY DURATION: 25 WK), Route [Carcinogen]: DERMAL, Route [Promoter]: DERMAL, Species: MOUSE, Strain/Sex: NMRI/FEMALE",skin: tumor
Clc1cnc(Oc2ccc(Oc3ncc(Cl)cc3Cl)cc2)c(Cl)c1,outcome,"Carcinogen: N-NITROSODIETHYLAMINE, 55-18-5, Doses [Carcinogen]: 75 MG/KG BW ONCE, Doses [Promoter]: 0, 100O PPM IN DIET FOR DURATION OF STUDY BEGINNING 2 WK POST CARCINOGEN DOSE (STUDY DURATION: 74 WK), Route [Carcinogen]: INTRAPERITONEAL, Route [Promoter]: ORAL, Species: RAT, Strain/Sex: F344/MALE",liver: adenoma; thyroid: follicular cell adenoma
same,outcome,"Carcinogen: N-NITROSODIETHYLAMINE, 55-18-5, Doses [Carcinogen]: 75 MG/KG BW ONCE, Doses [Promoter]: 0, 330 PPM IN DIET FOR DURATION OF STUDY BEGINNING 2 WK POST CARCINOGEN DOSE (STUDY DURATION: 74 WK), Route [Carcinogen]: INTRAPERITONEAL, Route [Promoter]: ORAL, Species: RAT, Strain/Sex: F344/MALE",liver: adenoma
same,outcome,"Carcinogen: N-NITROSODIETHYLAMINE, 55-18-5, Doses [Carcinogen]: 75 MG/KG BW ONCE, Doses [Promoter]: 30 MG/KG IN CORN OIL 1/2 WK BEGINNING 2 WK POST CARCINOGEN DOSE AND CONTINUING FOR 71 WK (STUDY DURATION: 73 WK), Route [Carcinogen]: INTRAPERITONEAL, Route [Promoter]: INTRAPERITONEAL, Species: RAT, Strain/Sex: F344/MALE",nasal cavity: carcinoma
same,outcome,"Carcinogen: N-NITROSODIETHYLAMINE, 55-18-5, Doses [Carcinogen]: 90 MG/KG BW ONCE, Doses [Promoter]: 3 MG/KG BW IN CORN OIL 1/2 WK BEGINNING 2 WK POST CARCINOGEN DOSE AND CONTINUING FOR 24 WK (STUDY DURATION: 55 WK), Route [Carcinogen]: INTRAPERITONEAL, Route [Promoter]: INTRAGASTRIC, Species: MOUSE, Strain/Sex: C57BL/MALE",liver: hepatocellular adenoma or carcinoma
same,outcome,"Carcinogen: N-NITROSODIETHYLAMINE, 55-18-5, Doses [Carcinogen]: 90 MG/KG BW ONCE, Doses [Promoter]: 3 MG/KG BW IN CORN OIL 1/2 WK BEGINNING 2 WK POST CARCINOGEN DOSE AND CONTINUING FOR 24 WK (STUDY DURATION: 55 WK), Route [Carcinogen]: INTRAPERITONEAL, Route [Promoter]: INTRAGASTRIC, Species: MOUSE, Strain/Sex: DBA/MALE",liver: hepatocellular adenoma or carcinoma
same,outcome,"Carcinogen: N-NITROSODIETHYLAMINE, 55-18-5, Doses [Carcinogen]: 90 MG/KG BW ONCE, Doses [Promoter]: 3 MG/KG BW IN CORN OIL 1/2 WK BEGINNING 2 WK POST CARCINOGEN DOSE AND CONTINUING FOR 24 WK (STUDY DURATION: 55 WK), Route [Carcinogen]: INTRAPERITONEAL, Route [Promoter]: INTRAPERITONEAL, Species: MOUSE, Strain/Sex: C57BL/MALE",liver: hepatocellular adenoma or carcinoma
same,outcome,"Carcinogen: N-NITROSODIETHYLAMINE, 55-18-5, Doses [Carcinogen]: 90 MG/KG BW ONCE, Doses [Promoter]: 3 MG/KG BW IN CORN OIL 1/2 WK BEGINNING 2 WK POST CARCINOGEN DOSE AND CONTINUING FOR 24 WK (STUDY DURATION: 55 WK), Route [Carcinogen]: INTRAPERITONEAL, Route [Promoter]: INTRAPERITONEAL, Species: MOUSE, Strain/Sex: DBA/MALE",liver: hepatocellular adenoma or carcinoma
C#C[C@]1(O)CC[C@H]2[C@@H]3CCc4cc(O)ccc4[C@H]3CC[C@@]21C,outcome,"Carcinogen: 3,2'-DIMETHYL-4-AMINOBIPHENYL, 13394-86-0, Doses [Carcinogen]: 100 MG/KG 1/WK FOR 20 WK, Doses [Promoter]: 0, 0.75 PPM IN DIET FOR DURATION OF STUDY (STUDY DURATION: 50 WK), Route [Carcinogen]: SUBCUTANEOUS, Route [Promoter]: ORAL, Species: HAMSTER, Strain/Sex: SYRIAN/FEMALE",gallbladder: adenoma or adenocarcinoma
same,outcome,"Carcinogen: 3,2'-DIMETHYL-4-AMINOBIPHENYL, 13394-86-0, Doses [Carcinogen]: 100 MG/KG 1/WK FOR 20 WK, Doses [Promoter]: 0, 0.75 PPM IN DIET FOR DURATION OF STUDY (STUDY DURATION: 50 WK), Route [Carcinogen]: SUBCUTANEOUS, Route [Promoter]: ORAL, Species: HAMSTER, Strain/Sex: SYRIAN/MALE",gallbladder: adenoma or adenocarcinoma
same,outcome,"Carcinogen: 7,12-DIMETHYLBENZ[A]ANTHRACENE (DMBA) [57-97-6]AND N-BIS(2-HYROXYPROPYL)NITROSOSAMINE (DHPN) [53609-64-6], Doses [Carcinogen]: DMBA-SINGLE DOSE OF 50 MG/KG BW AT 7 WKS OF AGE, DHPN- 0.2% IN WATER WKS 6-14 OF AGE (STUDY DURATION: 27 WKS FOR MALES;, Doses [Carcinogen]: DMBA-SINGLE DOSE OF 50 MG/KG BW AT 7 WKS OF AGE, DHPN- 0.2% IN WATER WKS 6-14 OF AGE (STUDY DURATION: 27 WKS FOR MALES;, Doses [Promoter]: 0, 0.2, 1% IN DIET (STUDY DURATION: 27 AND 36 WKS FOR MALES AND FEMALES RESPECTIVELY), Doses [Promoter]: 0, 0.2, 1% IN DIET (STUDY DURATION: 27 AND 36 WKS FOR MALES AND FEMALES RESPECTIVELY), Route [Carcinogen]: ORAL (DMBA, GAVAGE; DHPN, DRINKING WATER), Route [Promoter]: MATERNAL MILK TO 3 WKS OF AGE, DIET FROM WKS 3 TO 6 OF AGE, Species: RAT, Strain/Sex: F344/FEMALE, MALE",negative
same,outcome,"Carcinogen: DIETHYLNITROSAMINE, 55-18-5, Doses [Carcinogen]: 100 MG/KG ONCE, Doses [Promoter]: 0, 10 PPM (0.5 MG/KG/D) 2 MO POST CARCINOGEN DOSE AND CONTINUING FOR 8 MO (STUDY DURATION: 12 MO), Route [Carcinogen]: INTRAPERITONEAL, Route [Promoter]: ORAL, Species: RAT, Strain/Sex: CD-1/FEMALE",liver: carcinoma/neoplastic nodules
same,outcome,"Carcinogen: DIETHYLNITROSAMINE, 55-18-5, Doses [Carcinogen]: 100 MG/KG ONCE, Doses [Promoter]: 0, 10 PPM (0.5 MG/KG/D) 2 MO POST CARCINOGEN DOSE AND CONTINUING FOR 8 MO (STUDY DURATION: 12 MO), Route [Carcinogen]: INTRAPERITONEAL, Route [Promoter]: ORAL, Species: RAT, Strain/Sex: CD-1/MALE",liver: carcinoma/neoplastic nodules
same,outcome,"Carcinogen: DIETHYLNITROSAMINE, 55-18-5, Doses [Carcinogen]: 200 MG/KG ONCE, Doses [Promoter]: 0, 160-210 UG/KG BW DAILY FROM RELEASE PELLETS FOR 30 WK BEGINNING 2 WK POST CARCINOGEN DOSE (STUDY DURATION: 30 WK), Route [Carcinogen]: INTRAPERITONEAL, Route [Promoter]: SUBCUTANEOUS, Species: RAT, Strain/Sex: WISTAR/FEMALE",liver: hepatocellular carcinoma
ClC(Cl)(Cl)Cl,outcome,"Carcinogen: 3'-METHYL-4-DIMETHYLAMINOAZOBENZENE, Doses [Carcinogen]: DIET, Route [Carcinogen]: ORAL, Species: RAT, Strain/Sex: FEMALE",liver
same,outcome,"Carcinogen: (+/-)-TRANS-7,8-DIHYDROBENZO[A]PYRENE-7,8-DIOL, 61443-57-0, Doses [Carcinogen]: 1 UG CO-ADMINISTERED WITH PROMOTER DOSE, Doses [Promoter]: 1 UG INJECTED INTO NEWLY HATCHED SAC-FRY CO-ADMINISTERED WITH CARCINOGEN DOSE (STUDY DURATION: 9 MO), Route [Carcinogen]: INJECTION, Route [Promoter]: INJECTION, Species: FISH, Strain/Sex: RAINBOW TROUT/MALE,FEMALE",liver: tumor
same,outcome,"Doses [Carcinogen]: 20 NG/SAC-FRY, Doses [Promoter]: 0, 1 ML/KG AT 21-DAY INTERVALS FOR A TOTAL OF 3 DOSES BEGINNING 25 D POST CARCINOGEN TREATMENT (STUDY DURATION: 3 MO), Route [Carcinogen]: INJECTION, Route [Promoter]: INTRAPERITONEAL, Species: FISH, Strain/Sex: RAINBOW TROUT",liver: basophilic carcinoma
CCCCCCCCCCCCO,outcome,"Carcinogen: 7,12-DIMETHYLBENZ(A)ANTHRACENE, Doses [Carcinogen]: TOP, Route [Carcinogen]: DERMAL, Route [Promoter]: DERMAL, Species: MOUSE, Strain/Sex: FEMALE",integumentary system (skin)
Nc1ncn[nH]1,outcome,"Carcinogen: N-BIS(2-HYDROXYPROPYL)NITROSAMINE, Doses [Carcinogen]: 70 MG/100 G BW 1/WK FOR 4 WK, Doses [Promoter]: 2000 PPM IN DIET FOR 12 WK BEGINNING 1 WK AFTER INITIATION, Route [Carcinogen]: SUBCUTANEOUS, Route [Promoter]: ORAL, Species: RAT, Strain/Sex: WISTAR/MALE","thyroid gland: adenoma, carcinoma"
C=C1[C@@H](O)[C@@H]2O[C@]3(CC[C@H](/C=C/[C@@H](C)[C@@H]4CC(C)=C[C@@]5(O[C@H](C[C@@](C)(O)C(=O)O)CCC5O)O4)O3)CC[C@H]2O[C@@H]1[C@@H](O)C[C@H](C)[C@H]1O[C@@]2(CCCCO2)CC[C@H]1C (stereo partly specified),outcome,"Carcinogen: 7,12-DIMETHYLBENZ[A]ANTHRACENE, 57-97-6, Doses [Carcinogen]: 100 UG IN 0.1 ML OF ACETONE ONCE, Doses [Promoter]: 0, 5 UG IN 0.1 ML OF ACETONE 2/WK FOR 30 WK BEGINNING 1 WK POST CARCINOGEN DOSE (STUDY DURATION: 31 WK), Route [Carcinogen]: DERMAL, Route [Promoter]: DERMAL, Species: MOUSE, Strain/Sex: CD-1/FEMALE",skin: tumor
same,outcome,"Carcinogen: N-METHYL-N'-NITRO-N-NITROSOGUANIDINE, 70-25-7, Doses [Carcinogen]: 100 MG/L OF DEIONIZED WATER AS DRINKING WATER FOR 8 WK, Doses [Promoter]: 0.25 MG/L IN DRINKING WATER BEGINNING 1 WK POST CARCINOGEN TREATMENT AND CONTINUING FOR 46 WK THEN 0.5 MG/L FOR 17 WK (S, Route [Carcinogen]: ORAL, Route [Promoter]: ORAL, Species: RAT, Strain/Sex: SPRAGUE-DAWLEY/MALE",glandular stomach: neoplasms
